Test results published in patent publication US10413505B1, “Pharmaceutical compositions and methods of using the same” (priority 2017, dated 2019).
Where a name gives a salt, the structure may show the parent alone.

Tested on: healthy adult subjects
Test: Example 11 ECG (QT/QTc) crossover study
Method: This was a single-dose, partially blinded, randomized, four-period, four-treatment, crossover study in which 24 healthy adult subjects received separate single doses of cocaine topical solution (8%), cocaine topical solution (4%), placebo, and moxifloxacin HCl tablet (400 mg) in four study periods. Each subject received a different treatment in each study period. Subjects received each of the following treatments in randomized fashion during the four treatment periods: (1) Treatment A: Cocaine hydrochloride, USP, topical solution, 8%; Dose=320 mg (80 mg/mL×4 mL); (2) Treatment B: Cocaine hydrochloride, USP, topical solution, 4%; Dose=160 mg (40 mg/mL×4 mL); (3) Treatment C: Placebo; and (4) Treatment D: AVELOX® (moxifloxacin hydrochloride); Dose=400 mg (1×400 mg tablet).
Treatments A, B, and C were blinded, while Treatment D was open label. Each drug administration was separated by a washout period of at least 4 days. […] Moxifloxacin HCl was orally administered along with approximately 240 mL (8 fl oz) of room temperature water.
A 25-hour continuous 12-lead ECG recording was performed on Day 1, starting 1 hour before dosing. At the designated time points, up to 10 replicate ECGs were extracted and intervals were measured using the High Precision QT technique. […] During protocol-specified ECG extraction windows, 10-second digital 12-lead ECG tracings were extracted from continuous recordings (preceded by a 10-minute supine rest period) at the following time points: predose (3 time points) and 20 minutes (end of cocaine dose; immediately after pledget removal), 40 minutes, and at 1, 1.25, 1.5, 2, 2.5, 3, 4, 6, 8, 12, and 24 hours after pledget insertion/moxifloxacin dosing.
The primary ECG endpoint was ΔQTcF. ΔQTcF is the QTc corrected for heart rate by the Fridericia method. The term “QTc”, as used herein, refers to the duration of the QT interval adjusted for the patient's heart rate.
The secondary ECG endpoints were: change-from-baseline heart rate (“HR”), time from beginning of the P-wave to the beginning of the next QRS complex (“PR”), deflections in the tracing of the electrocardiogram comprising the Q, R, and S waves that represent depolarization of the ventricles (“QRS”), time elapsed between two consecutive R waves (“RR”), and measure of the time in the tracing of the electrocardiogram between the start of the Q-wave and the end of the T-wave (“QT”); and T-wave morphological changes.

[1] = 400 mg, 20 min post-dose, QT/QTc Population
[2] = 400 mg, 40 min post-dose, QT/QTc Population
[3] = 400 mg, 1 hour post-dose, QT/QTc Population
[4] = 400 mg, 1.25 hour post-dose, QT/QTc Population
[5] = 400 mg, 1.5 hour post-dose, QT/QTc Population
[6] = 400 mg, 2 hours post-dose, QT/QTc Population
[7] = 400 mg, 3 hours post-dose, QT/QTc Population
[8] = 400 mg, 4 hours post-dose, QT/QTc Population
[9] = 400 mg, 6 hours post-dose, QT/QTc Population
[10] = 400 mg, 8 hours post-dose, QT/QTc Population
[11] = 400 mg, 12 hours post-dose, QT/QTc Population
[12] = 400 mg, 24 hours post-dose, QT/QTc Population
[13] = 400 mg, […] post-dose, QT/QTc Population
[14] = 20 min post-dose, QT/QTc Population
[15] = 40 min post-dose, QT/QTc Population
[16] = 1 hour post-dose, QT/QTc Population
[17] = 1.25 hour post-dose, QT/QTc Population
[18] = 1.5 hour post-dose, QT/QTc Population
[19] = 2 hours post-dose, QT/QTc Population
[20] = 3 hours post-dose, QT/QTc Population
[21] = 4 hours post-dose, QT/QTc Population
[22] = 6 hours post-dose, QT/QTc Population
[23] = 8 hours post-dose, QT/QTc Population
[24] = 12 hours post-dose, QT/QTc Population
[25] = 24 hours post-dose, QT/QTc Population
[26] = […] post-dose, QT/QTc Population

COc1c(N2C[C@@H]3CCCN[C@@H]3C2)c(F)cc2c(=O)c(C(=O)O)cn(C3CC3)c12 [moxifloxacin HCl, moxifloxacin hydrochloride]
peak ΔQTcF (400 mg oral, 4 hours post-dosing): 14.4 ms | peak ΔΔQTcF (400 mg oral, 4 h post-dose): 15.2 ms | ΔPR, change-from-baseline PR, LSMean [1]: 1.1 ms | ΔQRS, change-from-baseline QRS, LSMean [1]: -0.5 ms | ΔQT, change-from-baseline QT, LSMean [1]: -5.3 ms | ΔRR, change-from-baseline RR, LSMean [1]: -18.8 ms | ΔΔPR, placebo-corrected change-from-baseline PR, LSMean [1]: 2.1 ms | ΔPR, change-from-baseline PR, LSMean [2]: 1.4 ms | ΔQRS, change-from-baseline QRS, LSMean [2]: -0.5 ms | ΔQT, change-from-baseline QT, LSMean [2]: 2.2 ms | ΔRR, change-from-baseline RR, LSMean [2]: -15.8 ms | ΔΔPR, placebo-corrected change-from-baseline PR, LSMean [2]: 0.1 ms | ΔPR, change-from-baseline PR, LSMean [3]: 0.8 ms | ΔQRS, change-from-baseline QRS, LSMean [3]: -0.4 ms | ΔQT, change-from-baseline QT, LSMean [3]: 3.9 ms | ΔRR, change-from-baseline RR, LSMean [3]: -24.5 ms | ΔΔPR, placebo-corrected change-from-baseline PR, LSMean [3]: 0.1 ms | ΔPR, change-from-baseline PR, LSMean [4]: 0.5 ms | ΔQRS, change-from-baseline QRS, LSMean [4]: 0.2 ms | ΔQT, change-from-baseline QT, LSMean [4]: 3.9 ms | ΔRR, change-from-baseline RR, LSMean [4]: -35.1 ms | ΔΔPR, placebo-corrected change-from-baseline PR, LSMean [4]: -0.2 ms | ΔPR, change-from-baseline PR, LSMean [5]: -0.7 ms | ΔQRS, change-from-baseline QRS, LSMean [5]: 0.0 ms | ΔQT, change-from-baseline QT, LSMean [5]: 0.8 ms | ΔRR, change-from-baseline RR, LSMean [5]: -58.5 ms | ΔΔPR, placebo-corrected change-from-baseline PR, LSMean [5]: -1.9 ms | ΔPR, change-from-baseline PR, LSMean [6]: 0.2 ms | ΔQRS, change-from-baseline QRS, LSMean [6]: 0.0 ms | ΔQT, change-from-baseline QT, LSMean [6]: 4.2 ms | ΔRR, change-from-baseline RR, LSMean [6]: -33.8 ms | ΔΔPR, placebo-corrected change-from-baseline PR, LSMean [6]: 0.2 ms | ΔPR, change-from-baseline PR, LSMean [7]: -2.1 ms | ΔQRS, change-from-baseline QRS, LSMean [7]: 0.0 ms | ΔQT, change-from-baseline QT, LSMean [7]: 7.5 ms | ΔRR, change-from-baseline RR, LSMean [7]: -41.1 ms | ΔΔPR, placebo-corrected change-from-baseline PR, LSMean [7]: -2.1 ms | ΔPR, change-from-baseline PR, LSMean [8]: -1.5 ms | ΔQRS, change-from-baseline QRS, LSMean [8]: -0.0 ms | ΔQT, change-from-baseline QT, LSMean [8]: 6.7 ms | ΔRR, change-from-baseline RR, LSMean [8]: -121.3 ms | ΔΔPR, placebo-corrected change-from-baseline PR, LSMean [8]: -1.4 ms | ΔPR, change-from-baseline PR, LSMean [9]: -4.2 ms | ΔQRS, change-from-baseline QRS, LSMean [9]: -0.5 ms | ΔQT, change-from-baseline QT, LSMean [9]: -9.5 ms | ΔRR, change-from-baseline RR, LSMean [9]: -121.3 ms | ΔΔPR, placebo-corrected change-from-baseline PR, LSMean [9]: -2.6 ms | ΔPR, change-from-baseline PR, LSMean [10]: -5.2 ms | ΔQRS, change-from-baseline QRS, LSMean [10]: -0.5 ms | ΔQT, change-from-baseline QT, LSMean [10]: -7.6 ms | ΔRR, change-from-baseline RR, LSMean [10]: -88.8 ms | ΔΔPR, placebo-corrected change-from-baseline PR, LSMean [10]: -1.4 ms | ΔPR, change-from-baseline PR, LSMean [11]: -4.7 ms | ΔQRS, change-from-baseline QRS, LSMean [11]: -0.0 ms | ΔQT, change-from-baseline QT, LSMean [11]: -14.0 ms | ΔRR, change-from-baseline RR, LSMean [11]: -151.8 ms | ΔΔPR, placebo-corrected change-from-baseline PR, LSMean [11]: -3.9 ms | ΔPR, change-from-baseline PR, LSMean [12]: -0.9 ms | ΔQRS, change-from-baseline QRS, LSMean [12]: 0.1 ms | ΔQT, change-from-baseline QT, LSMean [12]: -6.6 ms | ΔRR, change-from-baseline RR, LSMean [12]: -65.8 ms | ΔΔPR, placebo-corrected change-from-baseline PR, LSMean [12]: 1.7 ms | T-wave morphology treatment emergent changes: Biphasic, Subject count (400 mg, QT/QTc Population): 0 | T-wave morphology treatment emergent changes: Biphasic, Timepoint count (400 mg, QT/QTc Population): 0 | T-wave morphology treatment emergent changes: Flat, Subject count (400 mg, QT/QTc Population): 0 | T-wave morphology treatment emergent changes: Flat, Timepoint count (400 mg, QT/QTc Population): 0 | T-wave morphology treatment emergent changes: Normal (−), Subject count (400 mg, QT/QTc Population): 0 | T-wave morphology treatment emergent changes: Normal (−), Timepoint count (400 mg, QT/QTc Population): 0 | T-wave morphology treatment emergent changes: Notched (+), Subject count (400 mg, QT/QTc Population): 0 | T-wave morphology treatment emergent changes: Notched (+), Timepoint count (400 mg, QT/QTc Population): 0 | T-wave morphology treatment emergent changes: Notched (−), Subject count (400 mg, QT/QTc Population): 0 | T-wave morphology treatment emergent changes: Notched (−), Timepoint count (400 mg, QT/QTc Population): 0 | ΔPR, change-from-baseline PR, LSMean [13]: -0.8 ms | ΔQRS, change-from-baseline QRS, LSMean [13]: -0.3 ms | ΔQT, change-from-baseline QT, LSMean [13]: 6.1 ms | ΔRR, change-from-baseline RR, LSMean [13]: -37.0 ms | ΔΔPR, placebo-corrected change-from-baseline PR, LSMean [13]: 0.5 ms | ΔHR (change-from-baseline HR), LSMean [14]: 1.0 bpm | ΔQTcF (change-from-baseline QTcF), LSMean [14]: -3.1 ms | ΔΔHR (placebo-corrected change-from-baseline HR), LSMean [14]: −4.4 bpm | ΔΔQTcF (placebo-corrected change-from-baseline QTcF), LSMean [14]: -0.1 ms | ΔHR (change-from-baseline HR), LSMean [15]: 1.3 bpm | ΔQTcF (change-from-baseline QTcF), LSMean [15]: 4.4 ms | ΔΔHR (placebo-corrected change-from-baseline HR), LSMean [15]: 0.4 bpm | ΔΔQTcF (placebo-corrected change-from-baseline QTcF), LSMean [15]: 5.4 ms | ΔHR (change-from-baseline HR), LSMean [16]: 1.8 bpm | ΔQTcF (change-from-baseline QTcF), LSMean [16]: 7.4 ms | ΔΔHR (placebo-corrected change-from-baseline HR), LSMean [16]: 1.7 bpm | ΔΔQTcF (placebo-corrected change-from-baseline QTcF), LSMean [16]: 7.8 ms | ΔHR (change-from-baseline HR), LSMean [17]: 2.6 bpm | ΔQTcF (change-from-baseline QTcF), LSMean [17]: 9.1 ms | ΔΔHR (placebo-corrected change-from-baseline HR), LSMean [17]: 2.7 bpm | ΔΔQTcF (placebo-corrected change-from-baseline QTcF), LSMean [17]: 8.7 ms | ΔHR (change-from-baseline HR), LSMean [18]: 3.9 bpm | ΔQTcF (change-from-baseline QTcF), LSMean [18]: 8.4 ms | ΔΔHR (placebo-corrected change-from-baseline HR), LSMean [18]: 3.8 bpm | ΔΔQTcF (placebo-corrected change-from-baseline QTcF), LSMean [18]: 7.9 ms | ΔHR (change-from-baseline HR), LSMean [19]: 2.3 bpm | ΔQTcF (change-from-baseline QTcF), LSMean [19]: 9.0 ms | ΔΔHR (placebo-corrected change-from-baseline HR), LSMean [19]: 3.1 bpm | ΔΔQTcF (placebo-corrected change-from-baseline QTcF), LSMean [19]: 8.9 ms | ΔHR (change-from-baseline HR), LSMean [20]: 2.6 bpm | ΔQTcF (change-from-baseline QTcF), LSMean [20]: 13.2 ms | ΔΔHR (placebo-corrected change-from-baseline HR), LSMean [20]: 2.5 bpm | ΔΔQTcF (placebo-corrected change-from-baseline QTcF), LSMean [20]: 13.0 ms | ΔHR (change-from-baseline HR), LSMean [21]: 3.4 bpm | ΔQTcF (change-from-baseline QTcF), LSMean [21]: 14.4 ms | ΔΔHR (placebo-corrected change-from-baseline HR), LSMean [21]: 1.6 bpm | ΔΔQTcF (placebo-corrected change-from-baseline QTcF), LSMean [21]: 15.2 ms | ΔHR (change-from-baseline HR), LSMean [22]: 8.2 bpm | ΔQTcF (change-from-baseline QTcF), LSMean [22]: 7.2 ms | ΔΔHR (placebo-corrected change-from-baseline HR), LSMean [22]: 2.5 bpm | ΔΔQTcF (placebo-corrected change-from-baseline QTcF), LSMean [22]: 10.9 ms | ΔHR (change-from-baseline HR), LSMean [23]: 5.7 bpm | ΔQTcF (change-from-baseline QTcF), LSMean [23]: 4.4 ms | ΔΔHR (placebo-corrected change-from-baseline HR), LSMean [23]: 1.6 bpm | ΔΔQTcF (placebo-corrected change-from-baseline QTcF), LSMean [23]: 11.5 ms | ΔHR (change-from-baseline HR), LSMean [24]: 10.7 bpm | ΔQTcF (change-from-baseline QTcF), LSMean [24]: 7.3 ms | ΔΔHR (placebo-corrected change-from-baseline HR), LSMean [24]: 1.5 bpm | ΔΔQTcF (placebo-corrected change-from-baseline QTcF), LSMean [24]: 9.6 ms | ΔHR (change-from-baseline HR), LSMean [25]: 4.2 bpm | ΔQTcF (change-from-baseline QTcF), LSMean [25]: 2.4 ms | ΔΔHR (placebo-corrected change-from-baseline HR), LSMean [25]: −0.0 bpm | ΔΔQTcF (placebo-corrected change-from-baseline QTcF), LSMean [25]: 7.5 ms | ΔHR (change-from-baseline HR), LSMean [26]: 2.6 bpm | ΔQTcF (change-from-baseline QTcF), LSMean [26]: 11.5 ms | ΔΔHR (placebo-corrected change-from-baseline HR), LSMean [26]: 0.9 bpm | ΔΔQTcF (placebo-corrected change-from-baseline QTcF), LSMean [26]: 9.8 ms
